Experimental data: publication PMC6892925, “Development of Novel Silyl Cyanocinnamic Acid Derivatives as Metabolic Plasticity Inhibitors for Cancer Treatment” (Scientific Reports, 2019)

Columns and labels:
[1] = test system: MCT1 expressing WiDr tumor xenograft; assay: In vivo tumor growth inhibition study, WiDr tumor xenograft; parameters: species or system mouse; settings: 25 mg/kg i.p., 16 days; for tumor growth suppression: vs control group
Method: (§1) Based on in vitro cell proliferation inhibition, MCT1 inhibition, and effects on glycolysis/mitochondrial function, we advanced candidate compounds 2a and 2b for translational in vivo safety and efficacy studies. […] Next, an MCT1 expressing WiDr tumor xenograft model was chosen to evaluate the efficacy of 2a and 2b. After tumors were inoculated, they were allowed to reach ~150 mm^3 volume, and mice were randomly divided into three groups. Group-1 was administered 25 mg/kg (i.p.) of compound 2a, group-2 was administered with 25 mg/kg (i.p.) of 2b, and group-3 was designated as control group and given an injection of vehicle. Treatment was continued for 16 days, and tumor volumes were recorded. […] During the two-week treatment period, there was no significant loss of body weights in mice between treated and control groups. […] At the end of the study, all the tumors were resected, and the tumor mass was weighed (Fig. 6D).
WiDr cells (5 × 10^6 cells) were suspended in 1:1 mixture of matrigel (Corning, cat. no. 356237) and PBS and injected subcutaneously into the right flank of female athymic nude mice (Charles River). The mice were randomly assigned into 3 groups (n = 6 mice per group). Vertical and horizontal diameters of tumors were measured every two- or three-days using calipers. The tumor volumes were calculated assuming a perfect sphere using the formula V = ab^2/2 where ‘a’ is the longer diameter of the tumor and ‘b’ is the shorter diameter of the tumor. Treatment was initiated when the tumor volume reached 100 mm^3. The study was terminated after sixteen days and tumors were then resected and weighed. All procedures performed using this method were approved by the University of Minnesota Institutional Animal Care and Use Committee (IACUC, protocol no. 1612-34444A) and are in accordance with all guidelines and regulations.

WiDr cell line = assay: MTT cell proliferation inhibition assay; settings: Homo sapiens, read-out: MTT IC50
Method: (§4) Human triple-negative breast cancer MDA-MB-231 cells (ATCC) were grown in DMEM supplemented with 10% FBS (Atlanta Biologicals) and penicillin-streptomycin (50U/ml, 50 µg/ml, Invitrogen). Human colorectal adenocarcinoma WiDr cells (ATCC) were cultured in MEM medium supplemented with 10% FBS and penicillin-streptomycin. […] Murine metastatic breast cancer 4T1 cells were grown in RPMI-1640 supplemented with 10% FBS and penicillin-streptomycin. Human estrogen receptor positive breast cancer MCF7 cells (Masonic Cancer Center, University of Minnesota) were grown in MEM supplemented with 6% FBS, EGF (0.01 µg/ml), NEAA, HDC (1 µg/ml), insulin (10 µg/ml), HEPES (12 mM) and sodium pyruvate (1 mM).
(§5) Cell proliferation inhibition was evaluated using 3-(4,5-dimethylthiazol-2-yl)-2,5-diphenyl tetrazolium bromide (MTT) assay as reported previously[19].

MDA-MB-231 cell line = assay: MTT cell proliferation inhibition assay; settings: Homo sapiens, MDA-MB-231, read-out: MTT IC50
Method: as §4, §5

healthy CD-1 mice = assay: In vivo systemic toxicity study; parameters: species or system mouse; settings: once daily 25 mg/kg, 16-day treatment period
Method: as §1
Five-week-old healthy CD-1 mice (Charles River) were obtained and acclimatized for one week prior to treatment. Mice (n = 6) were grouped randomly based on average body weight. […] Mice body weights were recorded daily as a proxy for animal health and were also examined for proper activity and grooming patterns. […]

[2] = test system: MCT4 expressing MDA-MB-231 cell line; assay: Seahorse XFe96 mitochondrial stress test (OCR); format: cell-based, human; settings: 30 µM, MDA-MB-231, vs DMSO control
Method: (§2) To assess mitochondrial stress, four parameters including maximal respiration, proton leak, ATP production, and spare respiratory capacity were measured. ATP production via OxPhos is dependent on mitochondrial integrity and can be measured directly via the oxygen consumption rate (OCR). Time-course OCR plots from WiDr and MDA-MB-231 cells were used to calculate 2a and 2b treatment-induced changes in specified parameters following the addition of various mitochondrial targeting agents (Fig. 5A,B). […] Spare respiratory capacity is a value that is not directly linked to mitochondrial damage but represents the cells ability to respond to rapid ATP demands.
(§3) 20,000 cells/well were plated in 96-well Seahorse plates (Agilent, part no. 101085-004) and incubated 16–24 hours at 37 °C at 5% CO2. Flux pack sensors (Agilent, part no. 102416-100) were hydrated with XF calibrant solution (Agilent, part no. 100840-000) overnight at 37 °C in a non-CO2 incubator. The serum free assay media was prepared from Seahorse base medium (Agilent, part no. 102353-100) enriched with glutamine (1 mM) and sodium pyruvate (1 mM). The pH of the media was adjusted to 7.4. For glycolysis stress test the serum free assay media was used. For the mitochondrial stress test glucose (10 mM) was added to make an enriched serum free assay media. For both stress tests an 8X stock concentration of test compounds in their respective media was prepared for microplate injections in port A. Stock solutions of glucose (90 mM), oligomycin (10 μM), and 2-deoxyglucose (Chem Impex, 550 mM) were prepared such that their final working concentrations are 10 mM, 1 μM and 50 mM, respectively, for glycolysis stress test. For mitochondrial stress test, stock solutions of oligomycin (9 µM), FCCP (2.5–10 µM, cell line dependent), rotenone + antimycin A (5.5 µM) were prepared such that their final concentrations were 1 µM, 0.25–1 µM, and 0.5 µM, respectively in the enriched test media. Under glycolytic stress test, the cells were treated with test compounds, followed by the addition of glucose, oligomycin and 2-deoxyglucose at 14.29, 33.8, 53.35, 72.87 minutes, respectively. Under mitochondrial stress test, cells were treated with test compounds, followed by the addition of oligomycin, FCCP, and rotenone + antimycin A, at 14.29, 33.8, 53.35, 72.87 minutes, respectively. Extracellular acidification rates (ECAR) and oxygen consumption rates (OCR) were recorded in real-time for glycolysis and mitochondrial stress tests, respectively, using a Seahorse XFe96® analyzer (Agilent). The parameters related to glycolytic and mitochondrial functions were calculated utilizing the Wave 2.4.0 software (Agilent). ATP rate assay experiment was performed using manufactures (Agilent) protocol, and respective mitochondrial and glycolytic ATP rates were normalized to protein (BCA assay) and calculated using Wave 2.4.0 software.

[3] = test system: MCT1 expressing WiDr cell line; assay: Seahorse XFe96 mitochondrial stress test (OCR); format: cell-based, human; settings: 30 µM, vs DMSO control
Method: as §2, §3

[4] = test system: MCF7, 4T1, WiDr, and MDA-MB-231 cell lines; assay: MTT cell proliferation inhibition, all cell lines tested; format: cell-based; settings: read-out: MTT IC50 values, span over all the cell lines tested
Method: as §5

SMILES | tumor volume vs control group [1] | tumor growth suppression [1] | IC50 (WiDr cell line) | IC50 (MDA-MB-231 cell line) | systemic toxicity / tolerability (body weight gains, behavior, grooming) (healthy CD-1 mice) | FCCP induced maximal respiration (OCR) [2] | oxygen consumption for mitochondrial ATP production (OCR) [2] | proton leak (OCR) [2] | spare respiratory capacity (OCR) [2] | FCCP induced maximal respiration (OCR) [3] | oxygen consumption for mitochondrial ATP production (OCR) [3] | proton leak (OCR) [3] | spare respiratory capacity (OCR) [3] | IC50 [4]
CC(C)(C)[Si](Oc1ccc(/C=C(\C#N)C(=O)O)cc1)(c1ccccc1)c1ccccc1 [2a] | significant suppression in tumor volume | 36% | 41 ± 2 µM | 93 µM | well tolerated | significantly decreased | significantly decreased | significant increase | significant decrease | significantly decreased | significantly decreased | significant increase | significant decrease | 6 to 93 µM
CC(C)(C)[Si](OCCOc1ccc(/C=C(\C#N)C(=O)O)cc1)(c1ccccc1)c1ccccc1 [2b] | – | 28% | 6 ± 1 µM | 71 ± 1 µM | well tolerated | significantly decreased | significantly decreased | significant increase | significant decrease | significantly decreased | significantly decreased | significant increase | significant decrease | 6 to 93 µM
